# Measurements: patent US20080274892A1, “Novel Haloalkylsulfonanilide Derivative, Herbicide, and Method of Use Thereof” (priority 2005, published 2008)
# How the values were obtained:
# [1] = test system: transplanted paddy rice plant and Bulrush; assay: Test Example 5: selectivity between transplanted paddy rice plant and weeds; assay type: in vivo; conditions: (highest dosage with no phytotoxicity to paddy rice)/(lowest dosage with effective level 4 on Bulrush); rice 3000-100 g/ha, Bulrush 300-10 g/ha; 21 days
# Outline: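 Scoring ran 21 days after treatment in a hothouse on a 0–4 scale (4 = 90–100%, 3 = 70–89%, 2 = 40–69%, 1 = 1–39%, 0 = none) relative to untreated plants. Post-emergence bulrush received 10, 30, 100 and 300 g/ha active ingredient. Transplanted rice received 100, 300, 1000 and 3000 g/ha to assess crop injury.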
# bulrush [2] = assay: Test Example 4: low dosage test for rice paddy weeds; assay type: in vivo, Scirpus juncoides; conditions: 300 g/ha as an active ingredient; plants treated at the one leaf stage; 21 days after treatment; vs untreated control
# Outline: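 Compound applied as a formulation at 300 g/ha to one-leaf bulrush grown in flooded clay loam (5 cm water) in a hot house. After 21 days, growth inhibition versus untreated plants rated on a 0–4 scale, with 4 meaning 90–100%.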
# bulrush [3] = assay: Test Example 1: herbicidal efficacy on rice paddy weeds pre-emergence; assay type: in vivo, Scirpus juncoides; conditions: dosage 1000 g/ha, 21 days
# false pimpernel [4] = assay: Test Example 2: herbicidal efficacy on rice paddy weeds post-emergence; assay type: in vivo, Lindernia pyxidaria; conditions: dosage 1000 g/ha; post-emergence, one leaf stage; 21 days after treatment
# false pimpernel [5] = assay: Test Example 1: herbicidal efficacy on rice paddy weeds pre-emergence; assay type: in vivo, Lindernia pyxidaria; conditions: dosage 1000 g/ha, 21 days
# bulrush [6] = assay: Test Example 2: herbicidal efficacy on rice paddy weeds post-emergence; assay type: in vivo, Scirpus juncoides; conditions: dosage 1000 g/ha; post-emergence, one leaf stage; 21 days after treatment
# barnyard glass = assay: as above; assay type: in vivo, Echinochloa crus-galli; conditions: dosage 1000 g/ha; post-emergence, one leaf stage; 21 days after treatment
# Outline: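 Efficacy on paddy weeds was scored on a 0 to 4 growth-inhibition scale: 4 for 90%-100%, 3 for 70%-89%, 2 for 40%-69%, 1 for 1%-39% and 0 for 0%. Barnyard glass was grown in clay loam in 75 cm^2 pots under 5 cm of water in a hot house. It was compared with untreated pots 21 days after treatment.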
# [7] = test system: paddy rice plant (cultivar: Nihonbare); assay: Test Example 3: phytotoxicity test for transplanted paddy rice plant; assay type: in vivo; conditions: dosage 1000 g/ha; transplanted rice, treated 5 days after transplantation; 21 days after treatment
# Outline: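 Clay loam soil was placed in a 75 cm^2 plastic pot and flooded to a water depth of 5 cm. Two Nihonbare paddy rice plants at the two-leaf stage were transplanted 1 cm deep and grown in a hot house. After treatment, pots stayed in the hot house for 21 days, and phytotoxicity was then graded against an untreated control.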
SMILES,Selective Index [1],Herbicide effect to Bulrush (bulrush [2]),Bulrush pre (herbicidal efficacy grade) (bulrush [3]),False pimpernel post (herbicidal efficacy grade) (false pimpernel [4]),False pimpernel pre (herbicidal efficacy grade) (false pimpernel [5]),Bulrush post (herbicidal efficacy grade) (bulrush [6]),Burnyard grass post (herbicidal efficacy grade) (barnyard glass),Phytotoxicity to paddy rice [7]
COC(=O)N(c1ccccc1CN1CC(C)(c2ccccc2)OC1=O)S(=O)(=O)C(F)(F)F (centres unmarked) [1-142],≧30,4 (90%-100% of herbicidal efficacy or phytotoxicity),4 (90%-100% of herbicidal efficacy or phytotoxicity),4 (90%-100% of herbicidal efficacy or phytotoxicity),4 (90%-100% of herbicidal efficacy or phytotoxicity),4 (90%-100% of herbicidal efficacy or phytotoxicity),4 (90%-100% of herbicidal efficacy or phytotoxicity),1 (1%-39% of herbicidal efficacy or phytotoxicity)
COC(=O)N(c1ccccc1CN1CC(C)(C(F)(F)F)OC1=O)S(=O)(=O)C(F)(F)F (centres unmarked) [1-143],10,4 (90%-100% of herbicidal efficacy or phytotoxicity),4 (90%-100% of herbicidal efficacy or phytotoxicity),4 (90%-100% of herbicidal efficacy or phytotoxicity),4 (90%-100% of herbicidal efficacy or phytotoxicity),4 (90%-100% of herbicidal efficacy or phytotoxicity),4 (90%-100% of herbicidal efficacy or phytotoxicity),1 (1%-39% of herbicidal efficacy or phytotoxicity)
CCCC1(CC)CN(Cc2ccccc2N(C(=O)OC)S(=O)(=O)C(F)(F)F)C(=O)O1 (centres unmarked) [1-144],10,4 (90%-100% of herbicidal efficacy or phytotoxicity),4 (90%-100% of herbicidal efficacy or phytotoxicity),4 (90%-100% of herbicidal efficacy or phytotoxicity),4 (90%-100% of herbicidal efficacy or phytotoxicity),4 (90%-100% of herbicidal efficacy or phytotoxicity),4 (90%-100% of herbicidal efficacy or phytotoxicity),1 (1%-39% of herbicidal efficacy or phytotoxicity)
CCC1(C(C)C)CN(Cc2ccccc2N(C(=O)OC)S(=O)(=O)C(F)(F)F)C(=O)O1 (centres unmarked) [1-145],10,4 (90%-100% of herbicidal efficacy or phytotoxicity),4 (90%-100% of herbicidal efficacy or phytotoxicity),4 (90%-100% of herbicidal efficacy or phytotoxicity),4 (90%-100% of herbicidal efficacy or phytotoxicity),4 (90%-100% of herbicidal efficacy or phytotoxicity),4 (90%-100% of herbicidal efficacy or phytotoxicity),2 (40%-69% of herbicidal efficacy or phytotoxicity)
COCC1(C)CN(Cc2ccccc2N(C(=O)OCC(C)(C)C)S(=O)(=O)C(F)(F)F)C(=O)O1 (centres unmarked) [1-146],10,4 (90%-100% of herbicidal efficacy or phytotoxicity),4 (90%-100% of herbicidal efficacy or phytotoxicity),4 (90%-100% of herbicidal efficacy or phytotoxicity),4 (90%-100% of herbicidal efficacy or phytotoxicity),4 (90%-100% of herbicidal efficacy or phytotoxicity),4 (90%-100% of herbicidal efficacy or phytotoxicity),1 (1%-39% of herbicidal efficacy or phytotoxicity)
COC(=O)N(c1ccccc1CN1C(=O)OC(C)(C)C1C)S(=O)(=O)C(F)(F)F (centres unmarked) [1-148],≧30,4 (90%-100% of herbicidal efficacy or phytotoxicity),4 (90%-100% of herbicidal efficacy or phytotoxicity),4 (90%-100% of herbicidal efficacy or phytotoxicity),4 (90%-100% of herbicidal efficacy or phytotoxicity),4 (90%-100% of herbicidal efficacy or phytotoxicity),4 (90%-100% of herbicidal efficacy or phytotoxicity),3 (70%-89% of herbicidal efficacy or phytotoxicity)
COC(=O)N(c1ccccc1CN1CC2(CCCCC2)OC1=O)S(=O)(=O)C(F)(F)F [1-149],10,4 (90%-100% of herbicidal efficacy or phytotoxicity),4 (90%-100% of herbicidal efficacy or phytotoxicity),4 (90%-100% of herbicidal efficacy or phytotoxicity),4 (90%-100% of herbicidal efficacy or phytotoxicity),4 (90%-100% of herbicidal efficacy or phytotoxicity),4 (90%-100% of herbicidal efficacy or phytotoxicity),2 (40%-69% of herbicidal efficacy or phytotoxicity)
COC(=O)N(c1ccccc1CN1C(=O)OCC1C)S(=O)(=O)C(F)(F)F (centres unmarked) [1-150],10,4 (90%-100% of herbicidal efficacy or phytotoxicity),4 (90%-100% of herbicidal efficacy or phytotoxicity),4 (90%-100% of herbicidal efficacy or phytotoxicity),4 (90%-100% of herbicidal efficacy or phytotoxicity),4 (90%-100% of herbicidal efficacy or phytotoxicity),4 (90%-100% of herbicidal efficacy or phytotoxicity),2 (40%-69% of herbicidal efficacy or phytotoxicity)
COC(=O)N(c1ccccc1CN1C(=O)OC2CCCCC21)S(=O)(=O)C(F)(F)F (centres unmarked) [1-152],10,4 (90%-100% of herbicidal efficacy or phytotoxicity),4 (90%-100% of herbicidal efficacy or phytotoxicity),4 (90%-100% of herbicidal efficacy or phytotoxicity),4 (90%-100% of herbicidal efficacy or phytotoxicity),4 (90%-100% of herbicidal efficacy or phytotoxicity),4 (90%-100% of herbicidal efficacy or phytotoxicity),1 (1%-39% of herbicidal efficacy or phytotoxicity)
COC(=O)N(c1ccccc1CN1CC(C)(C(C)(C)C)OC1=O)S(=O)(=O)C(F)(F)F (centres unmarked) [1-153],10,4 (90%-100% of herbicidal efficacy or phytotoxicity),4 (90%-100% of herbicidal efficacy or phytotoxicity),4 (90%-100% of herbicidal efficacy or phytotoxicity),4 (90%-100% of herbicidal efficacy or phytotoxicity),4 (90%-100% of herbicidal efficacy or phytotoxicity),4 (90%-100% of herbicidal efficacy or phytotoxicity),1 (1%-39% of herbicidal efficacy or phytotoxicity)
